Measured values: ChEMBL document CHEMBL3885881, “DrugMatrix”

Organism: Rattus norvegicus
Assay: DrugMatrix - Regimen: Daily Repeat
Assay type: toxicity, organism-based, Sprague-Dawley
Parameters: regimen Daily Repeat, gender Male, age 6-8 weeks
Settings: in vivo, po, route oral GAVAGE, vehicle .5 % CMC
[1] = 83 mg/kg, 72 h, tissue Blood, dose level High, time 3 day
[2] = 83 mg/kg, 72 h, tissue Plasma, dose level High, time 3 day
[3] = 83 mg/kg, 120 h, tissue Blood, dose level High, time 5 day
[4] = 83 mg/kg, 120 h, tissue Plasma, dose level High, time 5 day
[5] = […], 72 h, tissue Blood, dose 8.3 mg/Kg, dose level Low, time 3 day
[6] = […], 72 h, tissue Plasma, dose 8.3 mg/Kg, dose level Low, time 3 day
[7] = […], 120 h, tissue Blood, dose 8.3 mg/Kg, dose level Low, time 5 day
[8] = […], 120 h, tissue Plasma, dose 8.3 mg/Kg, dose level Low, time 5 day

## SODIUM ORTHOVANAD
[1]
  ABSOLUTE BASOPHIL: 0 CELLS/uL
  ABSOLUTE EOSINOPHIL: 49.33 CELLS/uL
  ABSOLUTE LYMPHOCYTE: 13060 CELLS/uL
  ABSOLUTE MONOCYTE: 206 CELLS/uL
  ABSOLUTE SEGMENTED NEUTROPHIL: 2051.33 CELLS/uL
  BASOPHIL: 0%
  EOSINOPHIL: 0.33%
  ERYTHROCYTE COUNT: 5.99 x10E6/uL
  LEUKOCYTE COUNT: 15.37 x10E3/uL
  LYMPHOCYTE: 85%
  MEAN CORPUSCULAR HEMOGLOBIN: 23.17 pg
  MEAN CORPUSCULAR HEMOGLOBIN CONCENTRATION: 37.8 G/DL
  NEUTROPHIL: 13.33%
  NUCLEATED RED BLOOD CELLS: 0.67 /100WBC
  PLATELET COUNT: 1409 x10E3/uL
[2]
  ALANINE AMINOTRANSFERASE: 51.33 u/L
  ALKALINE PHOSPHATASE: 333.67 u/L
  ASPARTATE AMINOTRANSFERASE: 81.67 u/L
  BLOOD UREA NITROGEN: 13.33 mg/dL
  CARBON DIOXIDE: 16.67 mmol/L
  CHOLESTEROL: 69 mg/dL
  CREATINE PHOSPHOKINASE: 309.33 u/L
  CREATININE: 0.2 mg/dL
  LACTATE DEHYDROGENASE: 147.67 u/L
  LIPASE: 9 u/L
  PHOSPHORUS: 10.33 mg/dL
  POTASSIUM: 6.71 MEQ/L
  SODIUM: 146.67 MEQ/L
  TOTAL BILIRUBIN: 0.27 mg/dL
  TOTAL PROTEIN: 5.43 G/DL
  URIC ACID: 1.8 mg/dL
[3]
  ABSOLUTE BASOPHIL: 0 CELLS/uL
  ABSOLUTE EOSINOPHIL: 42.5 CELLS/uL
  ABSOLUTE LYMPHOCYTE: 9180 CELLS/uL
  ABSOLUTE MONOCYTE: 133 CELLS/uL
  ABSOLUTE SEGMENTED NEUTROPHIL: 1544.5 CELLS/uL
  BASOPHIL: 0%
  EOSINOPHIL: 0.5%
  ERYTHROCYTE COUNT: 6.11 x10E6/uL
  HEMATOCRIT: 36.85%
  HEMOGLOBIN: 13.8 G/DL
  LEUKOCYTE COUNT: 10.9 x10E3/uL
  LYMPHOCYTE: 84%
  MEAN CORPUSCULAR HEMOGLOBIN: 22.65 pg
  MEAN CORPUSCULAR HEMOGLOBIN CONCENTRATION: 37.45 G/DL
  MEAN CORPUSCULAR VOLUME: 60.35 fL
  MONOCYTE: 1%
  NEUTROPHIL: 14.5%
  NUCLEATED RED BLOOD CELLS: 0 /100WBC
  PLATELET COUNT: 1518 x10E3/uL
[4]
  ALANINE AMINOTRANSFERASE: 55 u/L
  ALBUMIN: 4.2 G/DL
  ALKALINE PHOSPHATASE: 268.5 u/L
  ASPARTATE AMINOTRANSFERASE: 90 u/L
  BLOOD UREA NITROGEN: 15.5 mg/dL
  CARBON DIOXIDE: 32.5 mmol/L
  CHOLESTEROL: 82 mg/dL
  CREATINE PHOSPHOKINASE: 294.5 u/L
  CREATININE: 0.22 mg/dL
  LACTATE DEHYDROGENASE: 221.5 u/L
  LIPASE: 14 u/L
  POTASSIUM: 6.81 MEQ/L
  SODIUM: 147.35 MEQ/L
  TOTAL BILIRUBIN: 0.15 mg/dL
  TOTAL PROTEIN: 6 G/DL
  URIC ACID: 1.65 mg/dL
[5]
  ABSOLUTE BASOPHIL: 0 CELLS/uL
  ABSOLUTE EOSINOPHIL: 0 CELLS/uL
  ABSOLUTE MONOCYTE: 61 CELLS/uL
  ABSOLUTE SEGMENTED NEUTROPHIL: 1531 CELLS/uL
  BASOPHIL: 0%
  EOSINOPHIL: 0%
  ERYTHROCYTE COUNT: 5.33 x10E6/uL
  HEMATOCRIT: 34.23%
  HEMOGLOBIN: 13.1 G/DL
  LEUKOCYTE COUNT: 14.33 x10E3/uL
  LYMPHOCYTE: 89%
  MEAN CORPUSCULAR HEMOGLOBIN: 24.6 pg
  MEAN CORPUSCULAR HEMOGLOBIN CONCENTRATION: 38.27 G/DL
  MONOCYTE: 0.33%
  NEUTROPHIL: 10.67%
  NUCLEATED RED BLOOD CELLS: 0 /100WBC
  PLATELET COUNT: 1191.67 x10E3/uL
[6]
  ALANINE AMINOTRANSFERASE: 51 u/L
  ALBUMIN: 4.1 G/DL
  ALKALINE PHOSPHATASE: 345.67 u/L
  ASPARTATE AMINOTRANSFERASE: 90.67 u/L
  BLOOD UREA NITROGEN: 12.67 mg/dL
  CARBON DIOXIDE: 22 mmol/L
  CHLORIDE: 108.67 MEQ/L
  CHOLESTEROL: 71.67 mg/dL
  CREATINE PHOSPHOKINASE: 295.67 u/L
  CREATININE: 0.21 mg/dL
  LACTATE DEHYDROGENASE: 309 u/L
  LIPASE: 11 u/L
  PHOSPHORUS: 11.73 mg/dL
  POTASSIUM: 6.03 MEQ/L
  TOTAL BILIRUBIN: 0.2 mg/dL
  TOTAL PROTEIN: 5.73 G/DL
  URIC ACID: 1.3 mg/dL
[7]
  ABSOLUTE BASOPHIL: 0 CELLS/uL
  ABSOLUTE EOSINOPHIL: 0 CELLS/uL
  ABSOLUTE LYMPHOCYTE: 10049 CELLS/uL
  ABSOLUTE MONOCYTE: 38 CELLS/uL
  ABSOLUTE SEGMENTED NEUTROPHIL: 579.67 CELLS/uL
  BASOPHIL: 0%
  EOSINOPHIL: 0%
  ERYTHROCYTE COUNT: 5.74 x10E6/uL
  HEMATOCRIT: 36.57%
  LEUKOCYTE COUNT: 10.67 x10E3/uL
  LYMPHOCYTE: 94.33%
  MEAN CORPUSCULAR HEMOGLOBIN: 23.4 pg
  MEAN CORPUSCULAR HEMOGLOBIN CONCENTRATION: 36.67 G/DL
  MONOCYTE: 0.33%
  NEUTROPHIL: 5.33%
  NUCLEATED RED BLOOD CELLS: 0.33 /100WBC
  PLATELET COUNT: 1343.67 x10E3/uL
[8]
  ALANINE AMINOTRANSFERASE: 63.33 u/L
  ALKALINE PHOSPHATASE: 318 u/L
  ASPARTATE AMINOTRANSFERASE: 80 u/L
  CARBON DIOXIDE: 24 mmol/L
  CHOLESTEROL: 69.33 mg/dL
  CREATINE PHOSPHOKINASE: 250 u/L
  CREATININE: 0.18 mg/dL
  GLUCOSE: 176.33 mg/dL
  LACTATE DEHYDROGENASE: 93.33 u/L
  POTASSIUM: 6.41 MEQ/L
  SODIUM: 147.03 MEQ/L
  TOTAL BILIRUBIN: 0.27 mg/dL
  TOTAL PROTEIN: 6.2 G/DL
  URIC ACID: 2.1 mg/dL
